Source: patent US20210062178A1, “NOVEL XYLOSE ISOMERASE GENE AND POLYPEPTIDE AND USES THEREOF” (The Regents of the University of California, priority 2019, published 2021)

Tested on: new D-xylose isomerase (XI) 8454_2 from the gut of Odontotaenius disjunctus, SEQ ID NO: 2
Test: Enzymatic activity of xylose isomerase in crude cell extracts, coupled sorbitol dehydrogenase (SDH) assay, NADH depletion at 340 nm
Assay type: biochemical
Method: This clone was then was cultivated in liquid medium containing xylose as the sole carbon source in parallel with an identical clone carrying the same metabolic pathway, but instead expressing a XI from Piromyces sp (opt.PiXI). Opt.PiXI is a codon-optimized version of the XI gene from Piromyces sp.
Specific enzymatic activity was measured using a coupled enzyme (sorbitol dehydrogenase—SDH) that converts the product of XI (xylulose) into xylitol. In this process, for each molecule of xylose converted to xylulose, a molecule of NADH is converted in NAD+. NADH depletion is quantified by spectrophotometry at an optical density of 340 nm, and XI activity is stoichiometrically inferred. For the enzymatic activity, crude cell extracts were prepared using the same conditions for both strains (carrying 8454_2 or opt.PiXI genes) and immediately used.

OC1OC[C@@H](O)[C@H](O)[C@H]1O (stereo partly drawn) [D-xylose]
isomerization maximal velocity (Vmax) relative to the XI from Piromyces sp. (compared with XI from Piromyces sp. (opt.PiXI) under identical biological backgrounds and experimental conditions): three times higher
Km (new XI, expressed in S. cerevisiae): 19 mM
